Assay results as given in PubChem BioAssay AID256 (DTP/NCI, 2004).
“And” between values parts separate entries of the source, which are not always exact repeats. Identical values can stand only once. Toxic doses and inconclusive results are not listed.

System: CD2F1 mice, L1210 leukemia ip, survival T/C
Assay: NCI In Vivo Anticancer Drug Screen. Data for tumor model L1210 Leukemia (intraperitoneal) in CD2F1 (CDF1) mice
Conditions: higher = longer survival
Method in brief: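 Mice carrying a transplanted tumor received test compound or vehicle alone. The value is the measurement in the treated group divided by that in the vehicle-treated control group.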

[1] = endpoint: mean survival time, dose: 100.0 mg/kg/injection, schedule: Q01DX009 (ip), vehicle: saline with Tween-80
[2] = endpoint: mean survival time, dose: 200.0 mg/kg/injection, schedule: Q01DX009 (ip), vehicle: saline with Tween-80
[3] = endpoint: mean survival time, dose: 400.0 mg/kg/injection, schedule: Q01DX009 (ip), vehicle: saline with Tween-80
[4] = endpoint: mean survival time, dose: 100.0 mg/kg/injection, schedule: Q04DX002 (ip), vehicle: saline with Tween-80
[5] = endpoint: mean survival time, dose: 200.0 mg/kg/injection, schedule: Q04DX002 (ip), vehicle: saline with Tween-80
[6] = endpoint: mean survival time, dose: 400.0 mg/kg/injection, schedule: Q04DX002 (ip), vehicle: saline with Tween-80
[7] = endpoint: mean survival time, dose: 25.0 mg/kg/injection, schedule: Q04DX002 (ip), vehicle: saline with Tween-80
[8] = endpoint: mean survival time, dose: 50.0 mg/kg/injection, schedule: Q04DX002 (ip), vehicle: saline with Tween-80

Nc1nc(N)c(N=Nc2ccccc2S(=O)(=O)O)c(N)n1
T/C [1]: 94 % of control | T/C (endpoint: mean survival time, dose: 100.0 mg/kg/injection, schedule: Q04DX003 (ip), vehicle: saline with Tween-80): 95 % of control | T/C [2]: 108 % of control | T/C (endpoint: mean survival time, dose: 200.0 mg/kg/injection, schedule: Q04DX003 (ip), vehicle: saline with Tween-80): 100 % of control | T/C [3]: 100 % of control | T/C (endpoint: mean survival time, dose: 400.0 mg/kg/injection, schedule: Q04DX003 (ip), vehicle: saline with Tween-80): 93 % of control

CCN(CC)CCNC1CCCCC1
T/C (endpoint: mean survival time, dose: 25.0 mg/kg/injection, schedule: Q01DX009 (ip), vehicle: saline with Tween-80): 96 % of control | T/C (endpoint: mean survival time, dose: 25.0 mg/kg/injection, schedule: Q04DX003 (ip), vehicle: saline): 97 % of control | T/C (endpoint: mean survival time, dose: 50.0 mg/kg/injection, schedule: Q01DX009 (ip), vehicle: saline with Tween-80): 96 % of control | T/C (endpoint: mean survival time, dose: 50.0 mg/kg/injection, schedule: Q04DX003 (ip), vehicle: saline): 100 % of control | T/C [1]: 96 % of control | T/C (endpoint: mean survival time, dose: 100.0 mg/kg/injection, schedule: Q04DX003 (ip), vehicle: saline): 94 % of control

C/C(=N/Nc1ccc([N+](=O)[O-])cc1[N+](=O)[O-])c1ccccc1
T/C [1]: 91 % of control | T/C [2]: 97 % of control | T/C [3]: 100 % of control

CC(C)=CC(O)CC(O)(C(F)(F)F)C(F)(F)F (configuration not stated)
T/C (endpoint: mean survival time, dose: 100.0 mg/kg/injection, schedule: Q01DX001 (ip), vehicle: Klucel (hydroxypropylcellulose) (HPC)): 94 % of control | T/C [4]: 94 % of control | T/C (endpoint: mean survival time, dose: 200.0 mg/kg/injection, schedule: Q01DX001 (ip), vehicle: Klucel (hydroxypropylcellulose) (HPC)): 97 % of control | T/C [5]: 94 % of control | T/C (endpoint: mean survival time, dose: 400.0 mg/kg/injection, schedule: Q01DX001 (ip), vehicle: Klucel (hydroxypropylcellulose) (HPC)): 100 % of control | T/C [6]: 90 % of control

Cc1ccc(S(=O)(=O)NC(=O)C(=[N+]=[N-])c2ccc([N+](=O)[O-])cc2)cc1
T/C (endpoint: median survival time, dose: 25.0 mg/kg/injection, schedule: Q04DX002 (ip), vehicle: saline with Tween-80): 100 % of control | T/C (endpoint: median survival time, dose: 50.0 mg/kg/injection, schedule: Q04DX002 (ip), vehicle: saline with Tween-80): 90 % of control | T/C (endpoint: median survival time, dose: 100.0 mg/kg/injection, schedule: Q04DX002 (ip), vehicle: saline with Tween-80): 90 % of control | T/C (endpoint: median survival time, dose: 200.0 mg/kg/injection, schedule: Q04DX002 (ip), vehicle: saline with Tween-80): 90 % of control

O=S(=O)(F)c1cccc(Cl)c1C[P+](c1ccccc1)(c1ccccc1)c1ccccc1
T/C (endpoint: mean survival time, dose: 12.5 mg/kg/injection, schedule: Q01DX001 (ip), vehicle: Klucel (hydroxypropylcellulose) (HPC)): 103 % of control | T/C (endpoint: mean survival time, dose: 25.0 mg/kg/injection, schedule: Q01DX001 (ip), vehicle: Klucel (hydroxypropylcellulose) (HPC)): 115 % of control

C[N+](C)(C)C.[Cl-].[Cl-].[Cl][Sn]([Cl])[Cl].[Cl][Sn]([Cl])[Cl].[Ru+]
T/C [7]: 107 % of control | T/C [8]: 96 % of control

CC(C)NC1=C(NC(=O)NC(=O)c2ccccc2)C(=O)c2ccccc2C1=O
T/C (endpoint: mean survival time, dose: 100.0 mg/kg/injection, schedule: Q01DX001 (ip), vehicle: other): 100 % of control | T/C (endpoint: mean survival time, dose: 200.0 mg/kg/injection, schedule: Q01DX001 (ip), vehicle: other): 103 % of control | T/C (endpoint: mean survival time, dose: 400.0 mg/kg/injection, schedule: Q01DX001 (ip), vehicle: other): 106 % of control

C[N+]1(C)CCC(c2ccccc2)(c2ccccc2)C(=O)C1
T/C (endpoint: mean survival time, dose: 75.0 mg/kg/injection, schedule: Q01DX001 (ip), vehicle: saline): 101 % of control | T/C (endpoint: mean survival time, dose: 150.0 mg/kg/injection, schedule: Q01DX001 (ip), vehicle: saline): 101 % of control

COc1ccc(C2=CC(c3ccccc3)C(c3ccccc3)C(=O)N2)cc1 (configuration not stated)
T/C [7]: 98 % of control | T/C [5]: 97 % of control | T/C [6]: 90 % of control

COc1cccc2c1C(=O)c1c(O)c3c(c(O)c1C2=O)C[C@@](O)(C(=O)CO)C[C@@H]3OC1CC(N)C(OC)C(C)O1 (some centres not stated)
T/C (endpoint: mean survival time, dose: 0.54 mg/kg/injection, schedule: Q01DX009 (ip), vehicle: saline): 159 % of control | T/C (endpoint: mean survival time, dose: 0.65 mg/kg/injection, schedule: Q01DX009 (ip), vehicle: saline): 207 % of control | T/C (endpoint: mean survival time, dose: 0.9 mg/kg/injection, schedule: Q01DX009 (ip), vehicle: saline): 229 % of control | T/C (endpoint: mean survival time, dose: 1.08 mg/kg/injection, schedule: Q01DX009 (ip), vehicle: saline): 319 % of control | T/C (endpoint: mean survival time, dose: 1.3 mg/kg/injection, schedule: Q01DX001 (ip), vehicle: saline): 161 % of control | T/C (endpoint: mean survival time, dose: 1.8 mg/kg/injection, schedule: Q01DX009 (ip), vehicle: saline): 250 % of control | T/C (endpoint: mean survival time, dose: 2.16 mg/kg/injection, schedule: Q01DX001 (ip), vehicle: saline): 161 % of control | T/C (endpoint: mean survival time, dose: 3.0 mg/kg/injection, schedule: Q01DX009 (ip), vehicle: saline): 93 % of control | T/C (endpoint: mean survival time, dose: 3.6 mg/kg/injection, schedule: Q01DX001 (ip), vehicle: saline): 168 % of control and 170 % of control | T/C (endpoint: mean survival time, dose: 6.0 mg/kg/injection, schedule: Q01DX001 (ip), vehicle: saline): 189 % of control and 353 % of control | T/C (endpoint: mean survival time, dose: 10.0 mg/kg/injection, schedule: Q01DX001 (ip), vehicle: saline): 187 % of control and 260 % of control

Clc1cc(Cl)c(OCC#CI)cc1Cl
T/C (endpoint: mean survival time, dose: 50.0 mg/kg/injection, schedule: Q01DX001 (ip), vehicle: carboxymethylcellulose (CMC)): 91 % of control | T/C (endpoint: mean survival time, dose: 100.0 mg/kg/injection, schedule: Q01DX001 (ip), vehicle: carboxymethylcellulose (CMC)): 102 % of control | T/C (endpoint: mean survival time, dose: 200.0 mg/kg/injection, schedule: Q01DX001 (ip), vehicle: carboxymethylcellulose (CMC)): 91 % of control | T/C (endpoint: mean survival time, dose: 400.0 mg/kg/injection, schedule: Q01DX001 (ip), vehicle: carboxymethylcellulose (CMC)): 89 % of control

CN1CCC(O)(c2ccccc2C2=NC(C)(C)CO2)CC1
T/C [8]: 96 % of control | T/C (endpoint: mean survival time, dose: 100.0 mg/kg/injection, schedule: Q01DX001 (ip), vehicle: saline with Tween-80): 103 % of control | T/C [4]: 101 % of control | T/C (endpoint: mean survival time, dose: 200.0 mg/kg/injection, schedule: Q01DX001 (ip), vehicle: saline with Tween-80): 102 % of control | T/C [5]: 108 % of control
